Data reported in PMC5979480 (International Journal of Molecular Sciences, 2018).

Experiments:
[1] = tested on: 6-OHDA hemi-parkinsonian (PD) rats; assay: Open-field test (locomotor and anxiety-like behavior); assay type: in vivo, Sprague-Dawley rats; conditions: 15 nmol/kg/day s.c. pump
Experimental: (§1) Modified surgical procedures were based on our previously described methods. Under Zoletil-Rumpun (10 mg/kg: 2 mg/kg, i.p.) anesthesia, SD rats were placed in a stereotaxic frame with the nose bar positioned 3.3 mm below the interaural line. Unilateral 6-hydroxydopamine (6-OHDA, 8 μg dissolved in 0.9% saline with 0.02% ascorbic acid) was injected for DA lesions into the left median forebrain bundle (MFB, coordinates: anteroposterior [49, 53], −4.3 mm; lateral (L), 1.6 mm from bregma; ventral (V), 8.2 mm from the dura).
In addition to its well-known motor manifestations, PD is also known to elicit neuropsychiatric disorders such as anxiety. We thus used open field measurements in the lesioned animals, as well as in intact animals, to evaluate not only general motor activity but also anxiety-related exploratory activity. Rats were first habituated to an open field Plexiglas arena (60 × 60 × 100 cm) for 10 min at day 4 and 5 post-lesion. At day 6 post-lesion, locomotor activity and anxiety-like behavior were monitored for 10 min using open field tests. The rat behaviors were recorded using an EthoVision system. Total distance, velocity, and freezing times in the open-field were considered general locomotor activities. The number and retention times in the central zone of the open field were measured as anxiety-like behaviors. The center of the open field was defined as a 30 × 30 cm^2 in the geometric center of the arena.

[2] = tested on: 6-OHDA hemi-parkinsonian (PD) rats; assay: Apomorphine-induced contralateral rotation; assay type: in vivo, Sprague-Dawley rats
Experimental: as §1
Apomorphine (0.5 mg/kg in 0.1% ascorbic acid, s.c.)-induced contralateral rotations were recorded using a digital video camera to count the number of rotations for 60 min at weekly intervals up to 4 weeks post-lesion (i.e., 7, 14, 21, and 28 days post-lesion) using the same test conditions. The net number of rotations was calculated (contralateral minus ipsilateral full turns). In unilaterally 6-OHDA lesioned animals, apomorphine-induced contralateral rotation is a well-established correlate of dopamine depletion, with rotation levels seen here indicative of an 80–90% loss.

TBI injury in rats = conditions: 38.5 µg/kg/day GIP (equivalent to 7.8 nmol/kg/day); cited from earlier work
[3] = in vivo; cited from earlier work

Compound | Open-field locomotor behavior (total distance moved, velocity, freezing time) ([1]; 10 min open field post-lesion, GIP vs saline p = 0.031, 0.021, 0.034, saline n = 8, GIP15 n = 5, naïve n = 6) | Number of entries into the central zone, GIP vs saline ([1]; 10 min open field, p = 0.008) | Retention times in the central zone, GIP vs saline ([1]; 10 min open field, p = 0.218) | Sensitization (progressive increase in apomorphine-induced rotations with repeated weekly tests) ([2]; 15 nmol/kg/day GIP, weekly tests up to 4 weeks post-lesion, time effect GIP p = 0.940) | Apomorphine-induced rotation, GIP vs saline ([2]; 15 nmol/kg/day s.c. pump for 2 weeks from 2 days pre-lesion, apomorphine 0.5 mg/kg s.c., 60 min, week 3 (p = 0.042) and week 4 (p = 0.019) post-6-OHDA, saline n = 9, GIP n = 10) | Initial levels of apomorphine-induced rotations ([2]; apomorphine 0.5 mg/kg, both lesioned groups (saline and GIP 15 nmol/kg/day)) | Effect on TBI injury (TBI injury in rats) | Share of plasma levels reaching the brain [3] [%]
CC[C@H](C)[C@H](NC(=O)[C@H](CO)NC(=O)[C@H](Cc1ccc(O)cc1)NC(=O)[C@H](CC(=O)O)NC(=O)[C@H](CO)NC(=O)[C@@H](NC(=O)[C@H](Cc1ccccc1)NC(=O)[C@@H](NC(=O)CNC(=O)[C@H](CCC(=O)O)NC(=O)[C@H](C)NC(=O)[C@@H](N)Cc1ccc(O)cc1)[C@@H](C)O)[C@@H](C)CC)C(=O)N[C@@H](C)C(=O)N[C@@H](CCSC)C(=O)N[C@@H](CC(=O)O)C(=O)N[C@@H](CCCCN)C(=O)N[C@H](C(=O)N[C@@H](Cc1c[nH]cn1)C(=O)N[C@@H](CCC(N)=O)C(=O)N[C@@H](CCC(N)=O)C(=O)N[C@@H](CC(=O)O)C(=O)N[C@@H](Cc1ccccc1)C(=O)N[C@H](C(=O)N[C@@H](CC(N)=O)C(=O)N[C@@H](Cc1c[nH]c2ccccc12)C(=O)N[C@@H](CC(C)C)C(=O)N[C@@H](CC(C)C)C(=O)N[C@@H](C)C(=O)N[C@@H](CCC(N)=O)C(=O)N[C@@H](CCCCN)C(=O)NCC(=O)N[C@@H](CCCCN)C(=O)N[C@@H](CCCCN)C(=O)N[C@@H](CC(N)=O)C(=O)N[C@@H](CC(=O)O)C(=O)N[C@@H](Cc1c[nH]c2ccccc12)C(=O)N[C@@H](CCCCN)C(=O)N[C@@H](Cc1c[nH]cn1)C(=O)N[C@@H](CC(N)=O)C(=O)N[C@H](C(=O)N[C@H](C(=O)N[C@@H](CCC(N)=O)C(=O)O)[C@@H](C)O)[C@@H](C)CC)C(C)C)[C@@H](C)CC [GIP, glucose-dependent insulinotropic polypeptide] | improved locomotor behavior to a level similar to the naïve group | significantly higher | trended to improve this deficit | not seen | statistically significant differences | over 400 | effectively mitigated TBI injury | 
Exenatide |  |  |  |  |  |  |  | ~2
